“And” between values parts separate entries of the source, which are not always exact repeats. Equal values may be shown once.

Test [1] has as its system EBV-specific and CMV-specific T cells. As to the kind of experiment: Pentamer analysis of virus-specific T cells after dimerizer. Type of test: cell-based, human. The following applies: 10 nM after 4 days reactivation with allogeneic PBMC.
In the next test the test system is MT-2. Nature of the test: CID-induced apoptosis (annexin V) in transduced MT-2 cells. Type of test: cell-based, human. Particulars: 8 hours.
The test system of another test is MSCs. As to the kind of experiment: CID-induced apoptosis of iCasp9-ΔCD19 transduced undifferentiated MSCs.
The next test deals with human CD3+/GFP+ T cells. Nature of the test: SCID mouse-human xenograft: elimination of iCasp9M-transduced CTLs in tumors. Type of test: in vivo, NOD/SCID mice. Particulars: single dose 50 μg intraperitoneally, versus carrier, 3 days after. As to the method: Non-obese diabetic severe combined immunodeficient (NOD/SCID) mice, 6 to 8 weeks of age, were irradiated (250 rad) and injected subcutaneously in the right flank with 10×10^6 to 15×10^6 LCLs resuspended in Matrigel (BD Bioscience). Two weeks later mice bearing tumors that were approximately 0.5 cm in diameter were injected into the tail vein with a 1:1 mixture of nontransduced and iCasp9.I.GFPhigh-transduced EBV CTLs (total 15×10^6). At 4 to 6 hours prior and 3 days after CTL infusion, mice were injected intraperitoneally with recombinant hIL-2 (2000 U; Proleukin; Chiron). […] By FACS analysis, the number of GFP+ cells within the gated CD3^+ population was evaluated. […]
The function of iCasp9M also was evaluated in transduced EBV-CTLs in vivo. […] Three days after CID/carrier administration, tumors were analyzed for human CD3^+/GFP^+ cells. […]
The function of iCasp9M in vivo, was assayed. […] On day 3 after CTL administration, mice received either CID (50 μg AP20187; (black diamonds, n=6) or carrier only (black squares, n=5) and on day 6 the presence of human CD3+/GFP+ T cells in the tumors was analyzed. Human CD3+ T cells isolated from the tumors of a control group of mice that received only nontransduced CTLs (15×10^6 CTLs; n=4) were used as a negative control for the analysis of CD3+/GFP+ T cells within the tumors.

The subject of another test is differentiated MSCs. Nature of the test: CID-induced apoptosis of differentiated MSC progeny (TUNEL, cell density). The following applies: adipocytic differentiated iCasp9-positive cells, 50 nM, 24 hours; from 584.

As for `CC[C@H](C(=O)N1CCCC[C@H]1C(=O)O[C@H](CCc1ccc(OC)c(OC)c1)c1cccc(OCC(=O)NCC(CNC(=O)COc2cccc([C@@H](CCc3ccc(OC)c(OC)c3)OC(=O)[C@@H]3CCCCN3C(=O)[C@@H](CC)c3cc(OC)c(OC)c(OC)c3)c2)CN(C)C)c1)c1cc(OC)c(OC)c(OC)c1` [AP20187], the “effect on virus-specific T cells (HLA pentamers, EBV and CMV)” value in test [1] was “spares (and thereby enriches) viral reactive subpopulations”. Further, the “apoptotic cells (annexin-V)” value in the test with MT-2 (iCasp9M-transduced MT-2, 10 nM) is recorded as 57.9%+/−11.9; in the test on MT-2 (iFas-transduced MT-2, 10 nM) it was 19.3%+/−8.4. Moreover, the apoptosis index with MSCs (iCasp9-negative MSCs, 50 nM, 24 hrs, listed as CID) is 20±7% and 19%. For the same compound, the apoptotic death in the test with MSCs (iCasp9-positive MSCs, 50 nM, 24 hrs) is 93±1%. The apoptotic cells result in the test with MSCs (magnetically immunoselected iCasp9-CD19-positive MSCs) is recorded as “More than 95%”. This compound also showed an annexin positive cells with MSCs (non-transduced control MSC (Control/CID), 50 nM) of 15%. In addition, the “reduction in the number of human CD3+/GFP+ T cells in tumors” value with human CD3+/GFP+ T cells is > 99%. Besides, in the test on differentiated MSCs, the cell density is reported as < 14 cells/mm2.

The record behind these values is US20220152100A1, “METHODS FOR CONTROLLED ACTIVATION OR ELIMINATION OF THERAPEUTIC CELLS” (Bellicum Pharmaceuticals, Inc., priority 2014, published 2022).
